Data as given in article PMC9569914, “Unique Structural Fold of LonBA Protease from Bacillus subtilis, a Member of a Newly Identified Subfamily of Lon Proteases” (International Journal of Molecular Sciences, 2022).

B1: P domain of BsLonBA (residues 347-552) (domain or fragment, Bacillus subtilis strain 168, UniProt P42425 347-552, looked up)
chain: GVEPQVGIVNGLAVYGPNSGSLLEIEVSVTAAQDKGSINITGIAEEESIGSQSKSIRRKSMAKGSVENVLTVLRTMGMKPSDYDIHINFPGGIPIDGPSAGIAMAAGIFSAIHKIPIDNTVAMTGEISLNGLVKPIGGVIPKIKAAKQSGAKKVIIPYENQQAILKQIDGIEIIAVKTFQEVLDEILVNPPTEQKPFHIEINKESV
modifications: bortezomib covalently bound to the Oγ of Ser445 via the boronate moiety (in the crystal only; added after the sizing column)
notes: LonBA protease (previously assigned as LonB) of Bacillus subtilis strain 168, protease (P) domain, residues Gly347-Val552 of the 552-residue enzyme; catalytic dyad Ser445 and Lys488; Dimer on the sizing column, hexamer in the crystal by crystallographic symmetry (two chains in the asymmetric unit); Modelled in the maps: residues 352-547 in chain A and 348-535 in chain B; also called protease …

Key:
BsLonBA = target: T1, BsLonBA (Bacillus subtilis, UniProt P42425); assay: IC50 from PepTBE peptidase assay of full-length enzyme; type: biochemical
T1 construct: gene lon2; P domain, residues 347–552 (crystal); full-length BsLonBA-H6 (IC50)
T1 sequence (P42425 whole entry, the tested form may be a part): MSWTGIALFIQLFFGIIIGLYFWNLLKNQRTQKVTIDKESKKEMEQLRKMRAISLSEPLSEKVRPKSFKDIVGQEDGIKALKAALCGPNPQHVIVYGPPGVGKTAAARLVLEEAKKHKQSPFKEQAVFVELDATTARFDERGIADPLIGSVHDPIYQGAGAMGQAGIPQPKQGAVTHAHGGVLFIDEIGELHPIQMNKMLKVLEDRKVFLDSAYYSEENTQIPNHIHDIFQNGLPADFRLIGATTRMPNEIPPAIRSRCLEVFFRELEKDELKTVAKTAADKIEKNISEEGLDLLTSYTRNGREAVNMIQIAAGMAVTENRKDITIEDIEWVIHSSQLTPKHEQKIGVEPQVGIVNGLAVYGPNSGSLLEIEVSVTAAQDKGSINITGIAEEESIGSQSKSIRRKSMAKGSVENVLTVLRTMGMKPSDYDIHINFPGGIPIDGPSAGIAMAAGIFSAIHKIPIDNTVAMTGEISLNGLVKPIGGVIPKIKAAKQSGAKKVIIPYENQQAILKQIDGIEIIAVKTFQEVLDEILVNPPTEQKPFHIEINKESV

EcLonA = target: T2, EcLonA (Escherichia coli, UniProt P0A9M0); assay: inhibition of PepTBE hydrolysis (peptidase assay, DTDP detection); also suppresses β-casein proteolysis; type: biochemical
T2 construct: gene lon; EcLonA-H6 (C-terminal hexahistidine tag)
T2 sequence (P0A9M0 2-784): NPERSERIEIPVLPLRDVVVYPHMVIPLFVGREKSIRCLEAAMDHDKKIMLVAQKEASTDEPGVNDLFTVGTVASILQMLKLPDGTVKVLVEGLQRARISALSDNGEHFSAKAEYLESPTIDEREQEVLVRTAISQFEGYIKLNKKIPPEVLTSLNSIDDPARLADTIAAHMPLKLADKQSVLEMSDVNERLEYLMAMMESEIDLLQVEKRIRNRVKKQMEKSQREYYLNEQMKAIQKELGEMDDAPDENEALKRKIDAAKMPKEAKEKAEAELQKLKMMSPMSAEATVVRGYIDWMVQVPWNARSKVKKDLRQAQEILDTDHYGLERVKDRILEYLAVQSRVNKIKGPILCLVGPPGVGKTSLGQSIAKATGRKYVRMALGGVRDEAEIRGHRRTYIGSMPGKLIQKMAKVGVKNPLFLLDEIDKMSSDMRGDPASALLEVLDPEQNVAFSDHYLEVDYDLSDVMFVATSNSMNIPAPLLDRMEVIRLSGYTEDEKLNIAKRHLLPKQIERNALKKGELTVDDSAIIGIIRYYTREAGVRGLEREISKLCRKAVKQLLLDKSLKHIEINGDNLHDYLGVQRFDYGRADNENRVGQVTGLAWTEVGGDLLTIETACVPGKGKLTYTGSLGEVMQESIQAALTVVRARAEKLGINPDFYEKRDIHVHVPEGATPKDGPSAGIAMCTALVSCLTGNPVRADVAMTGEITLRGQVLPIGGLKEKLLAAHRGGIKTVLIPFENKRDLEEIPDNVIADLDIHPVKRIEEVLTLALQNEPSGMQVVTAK

[1] = target: the molecule itself; assay: crystal structure; P domain with bortezomib (molar ratio 1:6), 10 mM MgCl2, hanging drop, 35% PEG400 pH 7.8; space group P6_(3), two molecules in the asymmetric unit, hexamer by the crystallographic 3-fold axis; 1.9 Å
[2] = target: the molecule itself; assay: SEC; HiPrep 26/60 Sephacryl S-200 HR sizing column before crystallization, 25 mM Tris pH 7.5, 200 mM NaCl, 2 mM TCEP, 4-8 °C; no bortezomib

Molecule | IC50 (BsLonBA) [nM] | IC50 (EcLonA) [nM] | stoichiometry N [1] | stoichiometry N [2]
CC(C)C[C@H](NC(=O)[C@H](Cc1ccccc1)NC(=O)c1cnccn1)B(O)O [bortezomib] | 1150 | 50 |  | 
B1 |  |  | 6 | 2
